# From patent publication US7465814B2, “Sulfonate compound and fluorescent probe using the same” (priority 2003, dated 2008)
# What was measured:
# [1] = Capability as superoxide-detecting fluorescent probe (reactivity with superoxide); assay type: biochemical; settings: tested similarly to the compound 1d
# Description: Then, by mainly using the compound 1d as a testing compound, the capability thereof as a superoxide-selective fluorescent probe was evaluated, and moreover, a test in a cell system also was conducted. These tests will be described below.
# Thus, it is thought that each compound synthesized from a combination of: a phenolic colorant; and a 2,4-dinitrobenzenesulfonyl group, a 4-trifluoromethyl-2-nitrobenzenesulfonyl group or a 4-nitrobenzenesulfonyl group can be used as a superoxide-detecting fluorescent probe similarly. An example of the usage thereof will be shown in Scheme 8 below. Furthermore, it can be expected that a compound for a fluorescent probe having characteristics that are suitable for its application purpose can be designed and developed freely, by designing the compound of the present invention freely within the limitation defined by the general formula (I) and using the fluorescence mechanism developed by the inventors of the present invention, without being limited to the above-described combinations. Examples of the application purpose of the compound of the present invention are varied, including an application to a faintly coloring technique using superoxide.
# [2] = Reactivity with superoxide and glutathione (FIG. 4); assay type: biochemical; settings: for selectivity (specificity), superoxide versus glutathione, FIG. 4: same conditions as 1-3 Superoxide-selectivity (2)
# Description: (§1) Moreover, in other conditions than those of the above-described tests, reactivity of all of the compounds 1a to 1d with H2O2, other various kinds of nucleophilic agents, reducing agents and the like also was tested, respectively. More specifically, fluorescent responses of 1a to 1d with respect to a XO-HPX system, a XO-HPX-SOD system, H2O2, ascorbic acid, 1,4-hydroquinone, propylamine, diethylamine, glucose, esterase, a cytochrome P450 reductase+NADPH system, and a diaphorase+NADH system were measured, respectively. Operational processes thereof will be described below. Firstly, 1a to 1d and the above-described reagents were dissolved in HEPES of 10 mM having a pH of 7.4 so as to prepare solutions, respectively. Next, a 96 wellmicroplate was provided, where any of the solutions of 1a to 1d (25 μM, 170 μL) was poured into each of the wells, and furthermore, 30 μL of a blank solution or 30 μL of the solution of the reagent to be reacted therewith was added thereto. Final concentrations of the solutions in the wells were adjusted so that concentrations of the solutions of 1a to 1d respectively could be 21.3 μM, that of XO could be 13.1 mU/mL, those of HPX, H2O2, ascorbic acid, 1,4-hydroquinone, propylamine, diethylamine, glucose, NADPH and NADH respectively could be 50 μM, that of cytochrome P450 reductase could be 68 mU/mL, that of diaphorase could be 65 mU/mL, and that of esterase could be 0.5 U/mL, respectively. Then, after they reacted in the wells at 37° C. for 10 minutes, fluorescent responses were measured respectively. Fluorescence intensity measurement was conducted by using an ETC-272 Peltier thermostatted single cell holder (trade name) manufactured by JASCO Corporation or a SpectraMax GeminiEM fluorescence plate reader (trade name) manufactured by Molecular Devices Corporation provided with a FP-750 spectrofluorometer (trade name) manufactured by JASCO Corporation, and by setting excitation wavelengths and emission wavelengths so that those of 1a, 1b and 1c respectively could be 485 nm and 515 nm, and those of 1d respectively could be 511 nm and 540 nm.
# (§2) The reactivity of each of the compounds 1d, 5a, 6a, 7 and 8a with respect to superoxide and glutathione (GSH) that is a kind of thiol was tested under the same conditions as those of [1-3. Superoxide-selectivity (2)] in Example 1. […] A vertical axis thereof denotes a fluorescence intensity, which is represented in % of control.
# [3] = Responses to the compounds listed in Table 1; assay type: biochemical; settings: same conditions as Example 1
# Description: as §1, §2
# [4] = Fluorescence response to thiophosphonate group (FIG. 8); assay type: biochemical; settings: for response to thiol group in thiophosphonate group: γ-S-ATP and adenosine monothiophosphate (S-AMP); for sensitivity of γ-S-ATP detection relative to 8a: similar tests
# Description: Moreover, a capability of the sulfonate compound of the present invention as a fluorescent probe for mercapto compounds other than thiol (a compound in which a —SH group is bonded to a carbon atom) was examined. […]
# [5] = Fluorescent response to XO-HPX system, 96-well microplate (Table 1); assay type: biochemical; settings: relative fluorescence intensity, blank = 10, probe 21.3 μM, 10 minutes; for fluorescent response, XO—HPX: XO 13.1 mU/mL, HPX 50 μM, HEPES pH 7.4, 37° C.; for fluorescent response, XO—HPX—SOD: XO-HPX with SOD, 37° C.
# Description: as §1
# [6] = Fluorescent response to H2O2 (Table 1); assay type: biochemical; settings: relative fluorescence intensity, blank = 10; probe 21.3 μM, H2O2 50 μM, 37° C., 10 minutes
# Description: as §1
# [7] = Fluorescent response to ascorbic acid (Table 1); assay type: biochemical; settings: relative fluorescence intensity, blank = 10; probe 21.3 μM, ascorbic acid 50 μM, 37° C., 10 minutes
# Description: as §1
# [8] = Fluorescent response to 1,4-hydroquinone (Table 1); assay type: biochemical; settings: relative fluorescence intensity, blank = 10; probe 21.3 μM, 1,4-hydroquinone 50 μM, 37° C., 10 minutes
# Description: as §1
# [9] = Fluorescent response to propylamine (Table 1); assay type: biochemical; settings: relative fluorescence intensity, blank = 10; probe 21.3 μM, propylamine 50 μM, 37° C., 10 minutes
# Description: as §1
# [10] = Fluorescent response to diethylamine (Table 1); assay type: biochemical; settings: relative fluorescence intensity, blank = 10; probe 21.3 μM, diethylamine 50 μM, 37° C., 10 minutes
# Description: as §1
# [11] = Fluorescent response to glucose (Table 1); assay type: biochemical; settings: relative fluorescence intensity, blank = 10; probe 21.3 μM, glucose 50 μM, 37° C., 10 minutes
# Description: as §1
# esterase = assay: Fluorescent response to esterase (Table 1); assay type: biochemical; settings: relative fluorescence intensity, blank = 10; probe 21.3 μM, esterase 0.5 U/mL, 37° C., 10 minutes
# Description: as §1
# Voltammetry measurement = assay type: physicochemical; settings: CH3CN—H2O (3:1) containing Et4NClO4
# neutrophils = tested on: neutrophils
# Description: Moreover, a toxicity of the compound 1d with respect to the neutrophils was evaluated by estimating cell viability by a trypan blue dyeing method. More specifically, the neutrophils (1.0×10^5 cells) were incubated at 37° C. for 120 minutes in a glass test tube coated with human serum albumin, in the presence of both of the compound 1d (6.25 μM) and PMA (0.16 μM), in the presence of either of them, and in the absence of them, respectively. Then, cell viability after the incubation with respect to cell viability before the incubation was measured.
compound,measurement,setting,value
O=c1ccc2nc3ccc(OS(=O)(=O)c4ccc(C(F)(F)F)cc4[N+](=O)[O-])cc3oc-2c1 [Compound 5b],deprotection by superoxide into the corresponding fluorochrome,[1],deprotected by superoxide
O=c1ccc2nc3ccc(OS(=O)(=O)c4ccc([N+](=O)[O-])cc4[N+](=O)[O-])cc3oc-2c1 [Compound 5a],deprotection by superoxide into the corresponding fluorochrome,[1],deprotected by superoxide
same,"selectivity (specificity), superoxide versus glutathione, FIG. 4",[2],excellent mercapto compound-selectivity
same,response with respect to each of the compounds listed in Table 1,[3],almost no response
same,response to thiol group in thiophosphonate group,[4],responded to a thiol group in a so-called thiophosphonate group
O=C(O)c1ccccc1-c1c2cc(F)c(=O)c(F)c-2oc2c(F)c(OS(=O)(=O)c3ccc(C(F)(F)F)cc3[N+](=O)[O-])c(F)cc12 [Compound 4a],deprotection by superoxide into the corresponding fluorochrome,[1],deprotected by superoxide
O=c1cc(C(F)(F)F)c2ccc(OS(=O)(=O)c3ccc(C(F)(F)F)cc3[N+](=O)[O-])cc2o1 [Compound 6b],deprotection by superoxide into the corresponding fluorochrome,[1],deprotected by superoxide
O=C(O)c1ccccc1-c1c2cc(F)c(=O)c(F)c-2oc2c(F)c(OS(=O)(=O)c3ccc([N+](=O)[O-])cc3)c(F)cc12 [Compound 4b],deprotection by superoxide into the corresponding fluorochrome,[1],deprotected by superoxide
Cc1cc2c(-c3ccccc3C(=O)O)c3cc(C)c(=O)cc-3oc2cc1OS(=O)(=O)c1ccc([N+](=O)[O-])cc1[N+](=O)[O-] [Compound 8b],response to glutathione,[2],responded to glutathione with high sensitivity
same,response with respect to each of the compounds listed in Table 1,[3],almost no response
same,sensitivity of γ-S-ATP detection relative to 8a,[4],sensitivity still higher than that of 8a
O=C1OC2(c3ccc(OS(=O)(=O)c4ccc([N+](=O)[O-])cc4[N+](=O)[O-])cc3Oc3cc(OS(=O)(=O)c4ccc([N+](=O)[O-])cc4[N+](=O)[O-])ccc32)c2ccccc21 [Compound 1a],"fluorescent response, XO—HPX",[5],70
same,"fluorescent response, XO—HPX—SOD",[5],12
same,"fluorescent response, H2O2",[6],10
same,"fluorescent response, ascorbic acid",[7],10
same,"fluorescent response, 1,4-hydroquinone",[8],10
same,"fluorescent response, propylamine",[9],10
same,"fluorescent response, diethylamine",[10],11
same,"fluorescent response, glucose",[11],10
same,"fluorescent response, esterase",esterase,17
same,cathode response,Voltammetry measurement,about −0.5 V vs SCE
O=C1OC2(c3cc(F)c(OS(=O)(=O)c4ccc([N+](=O)[O-])cc4[N+](=O)[O-])cc3Oc3cc(OS(=O)(=O)c4ccc([N+](=O)[O-])cc4[N+](=O)[O-])c(F)cc32)c2ccccc21 [Compound 1c],"fluorescent response, XO—HPX",[5],797
same,"fluorescent response, XO—HPX—SOD",[5],48
same,"fluorescent response, H2O2",[6],11
same,"fluorescent response, ascorbic acid",[7],11
same,"fluorescent response, 1,4-hydroquinone",[8],10
same,"fluorescent response, propylamine",[9],10
same,"fluorescent response, diethylamine",[10],10
same,"fluorescent response, glucose",[11],10
same,"fluorescent response, esterase",esterase,23
same,cathode response,Voltammetry measurement,about −0.5 V vs SCE
O=C1OC2(c3cc(Cl)c(OS(=O)(=O)c4ccc([N+](=O)[O-])cc4[N+](=O)[O-])cc3Oc3cc(OS(=O)(=O)c4ccc([N+](=O)[O-])cc4[N+](=O)[O-])c(Cl)cc32)c2ccccc21 [Compound 1b],"fluorescent response, XO—HPX",[5],288
same,"fluorescent response, XO—HPX—SOD",[5],22
same,"fluorescent response, H2O2",[6],11
same,"fluorescent response, ascorbic acid",[7],11
same,"fluorescent response, 1,4-hydroquinone",[8],11
same,"fluorescent response, propylamine",[9],10
same,"fluorescent response, diethylamine",[10],10
same,"fluorescent response, glucose",[11],10
same,"fluorescent response, esterase",esterase,20
same,cathode response,Voltammetry measurement,about −0.5 V vs SCE
Cc1c2oc3c(C)c(OS(=O)(=O)c4ccc([N+](=O)[O-])cc4[N+](=O)[O-])ccc3c(-c3ccccc3C(=O)O)c-2ccc1=O [Compound 8c],response to glutathione,[2],responded to glutathione with high sensitivity
same,response with respect to each of the compounds listed in Table 1,[3],almost no response
same,sensitivity of γ-S-ATP detection relative to 8a,[4],sensitivity still higher than that of 8a
"CCCCCCCCCCCCCC(=O)O[C@@H]1[C@@H](C)[C@@]2(O)[C@@H](C=C(CO)C[C@]3(O)C(=O)C(C)=C[C@@H]23)[C@@H]2C(C)(C)[C@]12OC(C)=O [PMA, phorbol myristate acetate, reference compound]",toxicity with respect to the neutrophils,neutrophils; incubation of 120 minutes,did not show any significant toxicity
same,cell viability after the incubation with respect to before the incubation,"neutrophils; substance only (1d 6.25 μM or PMA 0.16 μM), 1.0×10^5 neutrophils, 37° C., 120 minutes",93%
O=C1OC2(c3ccccc31)c1cc(F)c(OS(=O)(=O)c3ccc(C(F)(F)F)cc3[N+](=O)[O-])c(F)c1Oc1c2cc(F)c(OS(=O)(=O)c2ccc(C(F)(F)F)cc2[N+](=O)[O-])c1F [Compound 3],deprotection by superoxide into the corresponding fluorochrome,[1],deprotected by superoxide
Cc1cc(=O)oc2cc(OS(=O)(=O)c3ccc([N+](=O)[O-])cc3[N+](=O)[O-])ccc12 [Compound 7],"selectivity (specificity), superoxide versus glutathione, FIG. 4",[2],excellent mercapto compound-selectivity
same,response with respect to each of the compounds listed in Table 1,[3],almost no response
same,response to thiol group in thiophosphonate group,[4],responded to a thiol group in a so-called thiophosphonate group
